Data set [1] is described as follows: Molar titration of boric acid/α-hydroxy acid reaction products with 0.1N sodium hydroxide. Conditions: for pKa: 5.0 ml solution, pH at half of the end point; for Capacity (buffer capacity): titrant required to raise the pH one unit from the pKa value. The data set is classed as physicochemical. How it is done:
(§1) Reaction products of boric acid and α-hydroxy carboxylic acids were prepared by diluting pre-made stock solution of 0.4M boric acid and 0.4M, 0.6M, and 0.8M α-hydroxy carboxylic acid. [table] Each reaction mixture was allowed to mix for a minimum of two hours before subsequent titration with 0.1N certified sodium hydroxide solution. Two sets of titrations were performed. The first set of titrations, molar titration, 5.0 ml of each solution is titrated to accurately determine end point and the pKa and pH at half of the end point. The second set of titrations, equivalence titration, solution volumes were adjusted to 0.5 milliequivalent and the buffer capacity determined. For simplicity, buffer capacity is reported as the milliequivalents of titrant required to raise the pH one unit from the pKa value. An exception was made for the 1:3 test ratio in which free α-hydroxy acid and the boric acid ester complex could not be distinguished between.

The nature of data set [2]: Equivalence titration (0.5 milliequivalent) of reaction products with 0.1N sodium hydroxide. The data set is classed as physicochemical. To be noted: equivalent titration; for pKa: volume adjusted to 0.5 milliequivalent; for Capacity (buffer capacity): titrant required to raise the pH one unit from the pKa value. How it is done: as §1

By pKa is commonly meant the pH at which an ionisable group is half protonated. `O=C(O)CO` [Glycolic Acid 0, Glycolic Acid]: the pKa in data set [1] and in data set [2] was 3.9 each time. In addition, the “Capacity (buffer capacity)” value in data set [1] and in data set [2] was 13 milliequivalents each time.

Regarding `CC(O)C(=O)O` (stereo not drawn) [Lactic Acid 0, Lactic Acid], in data set [1], the pKa is 4 and the “Capacity (buffer capacity)” value was found to be 11 milliequivalents. In data set [2], the pKa amounted to 4 and the “Capacity (buffer capacity)” value is listed as 11 milliequivalents.

`O=C(O)CC(O)(CC(=O)O)C(=O)O` [Citric Acid 0, Citric Acid]: the pKa in data set [1] and in data set [2] was 4.3 each time. For the same compound, the “Capacity (buffer capacity)” value in data set [1] and in data set [2] was 39 milliequivalents throughout.

For the origin of these results see patent publication US12286451B2, “Borate ester complexes of α-hydroxy carboxylic acids and their conjugate base buffers” (Medtech Products Inc., priority 2020, dated 2025).
